Measurements as given in the supplement of paper PMC10307832.

Tests used:
Assay in all cases: relative viability (nuclei count vs DMSO), 5 days (fraction); higher = more cells survive
[1] = compound: CC(C)(C)c1cc(NC(=O)Nc2ccc(-c3cn4c(n3)sc3cc(OCCN5CCOCC5)ccc34)cc2)no1 [Quizartinib] + CC(=O)c1c(C)c2cnc(Nc3ccc(N4CCNCC4)cn3)nc2n(C2CCCC2)c1=O [Palbociclib] (partner 0.5 µM)
Method in brief: (§1)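 Values are medians from duplicate plates. Each reflects relative viability, defined as the nuclei count of treated wells over that of vehicle wells. Lung cancer cell lines in 1536-well plates were pin-tool dosed one day after seeding with one drug alone or with a fixed anchor-drug dose plus five library-drug doses (not always all listed) in √10 steps, then fixed, stained and imaged at 4× after 5 days.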

[2] = compound: CC(C)(C)c1cc(NC(=O)Nc2ccc(-c3cn4c(n3)sc3cc(OCCN5CCOCC5)ccc34)cc2)no1 [Quizartinib] + CC1(C)CCC(c2ccc(Cl)cc2)=C(CN2CCN(c3ccc(C(=O)NS(=O)(=O)c4ccc(N[C@H](CCN5CCOCC5)CSc5ccccc5)c(S(=O)(=O)C(F)(F)F)c4)cc3)CC2)C1 [Navitoclax] (partner 0.5 µM)
Method in brief: as §1

[3] = compound: COCC[n+]1c2c(n(Cc3cnccn3)c1C)C(=O)c1ccccc1C2=O [YM155] + C[C@]1(O)C[C@@H](c2nc(-c3ccc4ccc(-c5ccccc5)nc4c3)c3c(N)nccn32)C1 [Linsitinib] (partner 1 µM)
Method in brief: as §1

[4] = compound: COCC[n+]1c2c(n(Cc3cnccn3)c1C)C(=O)c1ccccc1C2=O [YM155] + C[C@@H](Oc1cc(-c2cnn(C3CCNCC3)c2)cnc1N)c1c(Cl)ccc(F)c1Cl [Crizotinib] (partner 1 µM)
Method in brief: as §1

Cell Line	relative viability ([1]; first compound 0.001 µM)	relative viability ([1]; first compound 0.003162 µM)	relative viability ([1]; first compound 0.01 µM)	relative viability ([1]; first compound 0.03162 µM)	relative viability ([1]; first compound 0.1 µM)	relative viability ([2]; first compound 0.001 µM)	relative viability ([2]; first compound 0.003162 µM)	relative viability ([2]; first compound 0.01 µM)	relative viability ([2]; first compound 0.03162 µM)	relative viability ([2]; first compound 0.1 µM)	relative viability ([3]; first compound 0.002 µM)	relative viability ([3]; first compound 0.006325 µM)	relative viability ([3]; first compound 0.02 µM)	relative viability ([3]; first compound 0.06325 µM)	relative viability ([4]; first compound 0.002 µM)	relative viability ([4]; first compound 0.006325 µM)	relative viability ([4]; first compound 0.02 µM)	relative viability ([4]; first compound 0.06325 µM)
COR-L23	0.236	0.269	0.34	0.244	0.244	1.01	0.968	1.02	0.875	1.03	0.846	0.857	0.463	0.174	0.649	0.569	0.403	0.105
NCI-H2023	0.298	0.312	0.467		0.279	0.981	0.937	1.04	0.744	1.04	0.744	0.699	0.659	0.305	0.719	0.734	0.717	0.361
NCI-H322M	0.429	0.477	0.49	0.512	0.527	1.1	1.08	1.19	1.37	1.23	0.762	0.929	0.917	1.01	0.822	0.906	0.949	0.578
NCI-H838	0.212	0.244	0.205	0.217	0.179	1.09	1.06	1.08	1.06	0.815	0.935	0.997	1.03	0.485	0.825	0.909	0.911	0.297
NCI-H23	0.425	0.543	0.548	0.453	0.396		0.852	0.915	0.773	0.472	0.54	0.595	0.598	0.295	0.527	0.607	0.47	0.234
